Assay [1] deals with human glucagon receptor (GCGR) (Homo sapiens (Human), UniProt P47871). As to the kind of experiment: Inhibition of 125I-glucagon binding to membranes from HEK293 cells expressing the human glucagon receptor. The method, then:
Inhibition ^125I-Glucagon Binding to Membranes from HEK293 Cells Expressing the Human Glucagon Receptor (GCGR)
Full-length human GCGR (Accession Number: NM000160) subcloned into pcDNA3.1 was stably transfected into HEK293 cells (hGluc-1 HEK) and maintained under G418 selection (500 μg/mL). Cell cultures were maintained in DMEM/F12 media supplemented with 10% FBS and 1% GlutaMax. Membranes were prepared from these cells as follows: cells were harvested from T225 flasks and re-suspended in hypotonic lysis buffer, 50 mM HEPES pH 7.4 supplemented with Complete Protease inhibitors (Boehringer Mannheim, Indianapolis, Ind.). Cells were dounced 20 times on ice and spun at 700×g to remove nuclei and unlysed cells. The resulting pellet was re-suspended in hypotonic lysis buffer and the above step was repeated. Supernatants from the low speed centrifugation were combined and subsequently spun at 100K×g for 1 hr at 4° C. and the resulting pellet was re-suspended in buffer containing 50 mM HEPES pH 7.4 and 10% sucrose and the protein concentration was adjusted at 1 mg/mL as determined in the BCA assay. Membranes were aliquoted and stored at −80° C. The binding assay was performed by a filtration method in a 384 well format. Membranes at a final protein concentration of 6 μg/well were incubated with ^125I-glucagon at 0.3 nM and in the presence of compound for 2 hours at room temperature in a total reaction volume of 40 μL per well. Assay buffer consisted of 50 mM HEPES, pH 7.4, 5 mM MgCl2, 1 mM CaCl2 and 0.2% BSA. 30 μL of the reaction was then transferred to PEI treated filter plates and followed by filter aspiration. Plates were then washed 5× and allowed to dry at room temperature overnight. The next day the bottom of the plate was covered with seal tape and scintillant was added. Total counts retained by the filters were quantified with a Top Count instrument. IC50's were generated by using a non-linear regression macro driven in Excel and converted to K's.

Assay [2] has as its target human GCGR (Homo sapiens (Human), UniProt P47871). Put plainly: Cellular functional assay, cAMP readout (glucagon-stimulated cAMP in HEK293 cells expressing human GCGR). In kind it is cell-based. Particulars: hGluc-1 HEK cells, LANCE TR-FRET, IC50 converted to Ki, average if tested more than once. On the procedure:
IC50 Values in Cellular Functional Assays: cAMP Readout
Full-length human GCGR (Accession Number: NM000160) subcloned into pcDNA3.1 was stably transfected into HEK293 cells (hGluc-1 HEK) and maintained under G418 selection (500 μg/mL). Cell cultures were maintained in DMEM/F12 media supplemented with 10% FBS and 1% GlutaMax. Glucagon stimulated cAMP was quantified using LANCE technology as per manufacturer instructions. On the day of the experiment, spent media was removed and cells were washed with Hank's Buffered Saline solution (HBSS) and cells were harvested with non-enzymatic cell dissociation solution, then washed once with HBSS. Cells were re-suspended in stimulation buffer at a concentration of 0.83×10^6 cells/ml and cAMP detection antibody was added. 6 μl/well of this solution was then dispensed in a 384 well plate (cell density 5000 cells/well). Test compound was serially diluted in DMSO and 50 nl were dispensed on top of the cell solution and allowed to incubate for 30 minutes. 6 μl of a 2× glucagon solution (final concentration in assay […]) was then added and the reaction was terminated after 5 minutes with the addition of detection mix. The mixture was incubated, protected from light for 1.5 h. cAMP levels were quantified by TR-FRET in an EnVision instrument against a known standard. IC50's were generated by using a non-linear regression macro driven in Excel and converted to K, values.
(In general: Time-resolved FRET reads energy transfer from a long-lived donor to a nearby acceptor.)

Where [3] appears, read: membranes of hGluc-1 HEK cells, 125I-glucagon 0.3 nM, 2 hours room temperature, IC50 converted to Ki, average if tested more than once.

pKi: −log10 of the molar value. Like-named read-outs stand apart in the source and are kept apart here.

As usually defined, the pKi is −log10 of the Ki, conventionally taken in molar units.

Sequence of human GCGR (P47871 26-477): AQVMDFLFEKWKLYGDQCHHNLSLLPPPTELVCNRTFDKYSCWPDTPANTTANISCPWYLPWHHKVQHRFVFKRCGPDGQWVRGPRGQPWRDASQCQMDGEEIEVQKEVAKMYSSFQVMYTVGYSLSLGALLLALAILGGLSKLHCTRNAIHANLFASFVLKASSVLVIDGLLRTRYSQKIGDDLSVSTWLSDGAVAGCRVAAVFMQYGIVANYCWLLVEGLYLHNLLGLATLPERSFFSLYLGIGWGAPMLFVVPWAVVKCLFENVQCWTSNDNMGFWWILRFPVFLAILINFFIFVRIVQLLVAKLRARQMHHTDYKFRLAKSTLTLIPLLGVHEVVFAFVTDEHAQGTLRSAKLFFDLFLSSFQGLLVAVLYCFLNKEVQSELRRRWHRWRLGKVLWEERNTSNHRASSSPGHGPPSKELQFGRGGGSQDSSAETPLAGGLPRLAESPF
Sequence of human glucagon receptor (GCGR) (P47871 26-477): as above

Take `O=C(O)CCNC(=O)c1ccc(-c2cc(C(F)(F)F)ccc2CNc2ccc(-c3cccc(C(F)(F)F)c3Cl)cc2)cn1` [Compound 41, 3-(5-(2-(((2′-chloro-3′-(trifluoromethyl)-[1,1′-biphenyl]-4-yl)amino)methyl)-5-(trifluoromethyl)phenyl)picolinamido)propanoic acid]: the pKi in assay [1] (setting [3]) was 7.69; in assay [2], 7.55.

Turning to `O=C(O)CCNC(=O)c1ccc(-c2cc(Cl)ccc2CNc2ccc(-c3ccc(F)c(C(F)(F)F)c3)c(Cl)c2)cn1` [Compound 144, 3-(5-(5-chloro-2-(((2-chloro-4′-fluoro-3′-(trifluoromethyl)-[1,1′-biphenyl]-4-yl)amino)methyl)phenyl)picolinamido)propanoic acid], the pKi is 7.91 in assay [1] (setting [3]) and 7.64 in assay [2].

As to `Cc1cc(Cl)ccc1-c1ccc(NCc2c(Cl)cc(C(F)(F)F)cc2-c2ccc(C(=O)NCCC(=O)O)nc2)cc1` [Compound 73, 3-(5-(3-chloro-2-(((4′-chloro-2′-methyl-[1,1′-biphenyl]-4-yl)amino)methyl)-5-(trifluoromethyl)phenyl)picolinamido)propanoic acid], the pKi in assay [1] (setting [3]) is 7.71; in assay [2], 8.43.

`O=C(O)CCNC(=O)c1ccc(-c2cc(-c3ccccc3)ccc2CNc2ccc(-c3ccc(Cl)cc3Cl)cc2)cn1` [Compound 173, 3-(5-(4-(((2′,4′-dichloro-[1,1′-biphenyl]-4-yl)amino)methyl)-[1,1′-biphenyl]-3-yl)picolinamido)propanoic acid]: the pKi in assay [1] (setting [3]) is 7.57; in assay [2], 7.17.

For `Cc1cc(-c2ccc(NCc3ccc(Cl)cc3-c3ccc(C(=O)NCCC(=O)O)nc3)cc2)ccc1F` [Compound 146, 3-(5-(5-chloro-2-(((4′-fluoro-3′-methyl-[1,1′-biphenyl]-4-yl)amino)methyl)phenyl)picolinamido)propanoic acid], the pKi was 7.55 in assay [1] (setting [3]) and 6.57 in assay [2].

Regarding `O=C(O)CCNC(=O)c1ccc(-c2cc(Cl)ccc2CNc2ccc(-c3ccc(Cl)c(Cl)c3)c(C(F)(F)F)c2)cn1` [Compound 55, 3-(5-(5-chloro-2-(((3′,4′-dichloro-2-(trifluoromethyl)-[1,1′-biphenyl]-4-yl)amino)methyl)phenyl)picolinamido)propanoic acid], the results for the pKi in assay [1] (setting [3]) and in assay [2] were 6.81 and 6.19, respectively.

As to `Cc1cc(Cl)ccc1-c1ccc(NCc2ccc(C(F)(F)F)cc2-c2ccc(C(=O)NCCC(=O)O)nc2)cc1` [Compound 22, 3-(5-(2-(((4′-chloro-2′-methyl-[1,1′-biphenyl]-4-yl)amino)methyl)-5-(trifluoromethyl)phenyl)picolinamido)propanoic acid], the pKi in assay [1] (setting [3]) was 7.60; in assay [2], 7.65.

Regarding `O=C(O)CCNC(=O)c1ccc(-c2cc(Cl)ccc2CNc2ccc(-c3ccc(F)cc3)cc2)cn1` [Compound 15, 3-(5-(5-chloro-2-(((4′-fluoro-[1,1′-biphenyl]-4-yl)amino)methyl)phenyl)picolinamido)propanoic acid], the results for the pKi in assay [1] (setting [3]) and in assay [2] were 7.47 and 7.04, respectively.

Take `Cc1cc(C(F)(F)F)ccc1-c1ccc(NCc2ccc(C(F)(F)F)cc2-c2ccc(C(=O)NCCC(=O)O)nc2)cc1` [Compound 30, 3-(5-(2-(((2′-methyl-4′-(trifluoromethyl)-[1,1′-biphenyl]-4-yl)amino)methyl)-5-(trifluoromethyl)phenyl)picolinamido)propanoic acid]: the pKi in assay [1] (setting [3]) and in assay [2] was 7.71 in each case.

For the compound `CC(=O)c1ccc(-c2ccc(NCc3ccc(Cl)cc3-c3ccc(C(=O)NCCC(=O)O)nc3)cc2)cc1` [Compound 156, 3-(5-(2-(((4′-acetyl-[1,1′-biphenyl]-4-yl)amino)methyl)-5-chlorophenyl)picolinamido)propanoic acid], the pKi in assay [1] (setting [3]) was 7.42; in assay [2], 6.79.

`N#Cc1cccc(CNc2ccc(-c3ccc(Cl)cc3)cc2)c1-c1ccc(C(=O)NCCC(=O)O)nc1` [Compound 66, 3-(5-(2-(((4′-chloro-[1,1′-biphenyl]-4-yl)amino)methyl)-6-cyanophenyl)picolinamido)propanoic acid]: the pKi was 7.16 in assay [1] (setting [3]) and 5.73 in assay [2].

For `O=C(O)CCNC(=O)c1ccc(-c2cc(F)c(F)cc2C(=O)Nc2ccc(-c3ccc(Cl)cc3)cc2)cn1` [Compound 97, 3-(5-(2-((4′-chloro-[1,1′-biphenyl]-4-yl)carbamoyl)-4,5-difluorophenyl)picolinamido)propanoic acid], the negative logarithm of the Ki (pKi) in assay [1] (setting [3]) is 7.24; in assay [2], 6.65.

For `O=C(O)CCNC(=O)c1ccc(-c2cc(F)c(F)cc2C(=O)Nc2ccc(-c3ccc(F)cc3)cc2)cn1` [Compound 95, 3-(5-(4,5-difluoro-2-((4′-fluoro-[1,1′-biphenyl]-4-yl)carbamoyl)phenyl)picolinamido)propanoic acid], the pKi in assay [1] (setting [3]) is 6.86; in assay [2], 6.22.

For `CC(C)c1ccc(CNc2ccc(-c3ccc(F)cc3)cc2)c(-c2ccc(C(=O)NCCC(=O)O)nc2)c1` [Compound 158, 3-(5-(2-(((4′-fluoro-[1,1′-biphenyl]-4-yl)amino)methyl)-5-isopropylphenyl)picolinamido)propanoic acid], the figures for the pKi in assay [1] (setting [3]) and in assay [2] were 7.70 and 6.90, respectively.

Regarding `O=C(O)CCNC(=O)c1ccc(-c2cc(Cl)ccc2CNc2ccc(-c3ccc(Cl)cc3)cc2)cn1` [Compound 6, 3-(5-(5-chloro-2-(((4′-chloro-[1,1′-biphenyl]-4-yl)amino)methyl)phenyl)picolinamido)propanoic acid], the pKi was 7.40 in assay [1] (setting [3]) and 7.30 in assay [2].

As to `O=C(O)CCNC(=O)c1ccc(-c2cc(Cl)ccc2CNc2ccc(-c3ccc(Cl)c(C(F)(F)F)c3)c(Cl)c2)cn1` [Compound 169, 3-(5-(5-chloro-2-(((2,4′-dichloro-3′-(trifluoromethyl)-[1,1′-biphenyl]-4-yl)amino)methyl)phenyl)picolinamido)propanoic acid], the pKi was 7.41 in assay [1] (setting [3]) and 6.85 in assay [2].

For the compound `O=C(O)CCNC(=O)c1ccc(-c2cc(C(F)(F)F)ccc2CNc2ccc(-c3ccc(Cl)cc3)cc2)cn1` [Compound 44, 3-(5-(2-(((4′-chloro-[1,1′-biphenyl]-4-yl)amino)methyl)-5-(trifluoromethyl)phenyl)picolinamido)propanoic acid], the figures for the pKi in assay [1] (setting [3]) and in assay [2] were 7.74 and 7.22, respectively.

`O=C(O)CCNC(=O)c1ccc(-c2cc(C(F)(F)F)ccc2CNc2ccc(-c3ccc(F)c(C(F)(F)F)c3)cc2)cn1` [Compound 26, 3-(5-(2-(((4′-fluoro-3′-(trifluoromethyl)-[1,1′-biphenyl]-4-yl)amino)methyl)-5-(trifluoromethyl)phenyl)picolinamido)propanoic acid]: the pKi in assay [1] (setting [3]) was 7.53; in assay [2], 6.76.

With `Cc1ccc(CNc2ccc(-c3ccc(Cl)cc3)cc2)c(-c2ccc(C(=O)NCCC(=O)O)nc2)c1` [Compound 68, 3-(5-(2-(((4′-chloro-[1,1′-biphenyl]-4-yl)amino)methyl)-5-methylphenyl)picolinamido)propanoic acid], the pKi was 7.40 in assay [1] (setting [3]) and 6.82 in assay [2].

With `COc1ccc(-c2ccc(C(=O)NCCC(=O)O)nc2)c(CNc2ccc(-c3ccc(Cl)c(Cl)c3)cc2)c1` [Compound 61, 3-(5-(2-(((3′,4′-dichloro-[1,1′-biphenyl]-4-yl)amino)methyl)-4-methoxyphenyl)picolinamido)propanoic acid], the pKi is 7.01 in assay [1] and 6.32 in assay [2].

With `Cc1cc(C(F)(F)F)ccc1-c1ccc(NCc2ccc(C(F)(F)F)cc2-c2ccc(C(=O)NCCC(=O)O)nc2)cc1Cl` [Compound 43, 3-(5-(2-(((2-chloro-2′-methyl-4′-(trifluoromethyl)-[1,1′-biphenyl]-4-yl)amino)methyl)-5-(trifluoromethyl)phenyl)picolinamido)propanoic acid], the pKi in assay [1] (setting [3]) is 7.76; in assay [2], 7.66.
